Assays:
[1] = target: human recombinant BChE (rBChE) in solution (Homo sapiens, UniProt P06276); assay: in solution stopped time assay for carbamoylation constants; assay type: biochemical; conditions: enzyme in solution, classical Ellman's assay
[2] = target: immobilized human recombinant butyrylcholinesterase (rBChE) (Homo sapiens, UniProt P06276); assay: rBChE-IMER on-line carbamoylation/decarbamoylation kinetics; assay type: biochemical; conditions: immobilized enzyme, 30 °C, flow rate 1.0 mL/min
Chain of immobilized human recombinant butyrylcholinesterase (rBChE) (P06276 29-602): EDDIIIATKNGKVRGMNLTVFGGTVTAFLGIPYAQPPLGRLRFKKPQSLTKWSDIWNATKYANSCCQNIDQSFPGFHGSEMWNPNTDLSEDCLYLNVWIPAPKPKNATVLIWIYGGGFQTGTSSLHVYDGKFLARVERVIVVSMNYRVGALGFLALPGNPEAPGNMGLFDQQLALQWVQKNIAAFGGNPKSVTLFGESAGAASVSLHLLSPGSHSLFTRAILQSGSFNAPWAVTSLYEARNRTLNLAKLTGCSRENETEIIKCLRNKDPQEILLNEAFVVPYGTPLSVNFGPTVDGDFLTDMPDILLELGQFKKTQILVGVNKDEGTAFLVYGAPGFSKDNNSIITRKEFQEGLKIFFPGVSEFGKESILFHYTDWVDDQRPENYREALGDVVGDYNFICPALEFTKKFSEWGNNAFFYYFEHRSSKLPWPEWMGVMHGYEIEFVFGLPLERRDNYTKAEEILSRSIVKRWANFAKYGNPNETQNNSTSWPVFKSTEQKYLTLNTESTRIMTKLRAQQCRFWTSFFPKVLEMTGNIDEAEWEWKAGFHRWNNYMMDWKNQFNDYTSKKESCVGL

Chain of human recombinant BChE (rBChE) in solution (P06276 29-602): as above

SMILES | carbamoylation constant k2, rBChE in solution [1] [min⁻¹] | carbamoylation constant k2, rBChE-IMER [2] [min⁻¹]
CNC(=O)Oc1ccc2c(c1)[C@]1(C)CCN(C)[C@@H]1N2C [(-)-Physostigmine, (-)-physostigmine, reference compound] | 0.479 ± 0.070 | 0.161 ± 0.025
CC(C)Cc1ccc(NC(=O)Oc2ccc3c(c2)[C@]2(C)CCN[C@@H]2N3)cc1 [(-)-Isobutylbisnorcymserine] | 0.634 ± 0.022 | 0.049 ± 0.002
CN1CC[C@@]2(C)c3cc(OC(=O)Nc4ccccc4)ccc3N(C)[C@@H]12 [(-)-Phenserine, 3aS-(-)-phenylcarbamoyleseroline] | 3.094 ± 0.536 | 0.486 ± 0.037
CC(C)c1ccc(NC(=O)Oc2ccc3c(c2)[C@]2(C)CCN[C@@H]2N3)cc1 [(-)-Bisnorcymserine] | 0.573 ± 0.068 | 0.081 ± 0.004

From paper PMC2653597 (Journal of chromatography. A, 2008)
